By IC50 is commonly meant the concentration that inhibits the measured activity by half.

The subject of the first experiment is HeLa Cells (ATCC CCL-2). The experiment can be described thus: Determination of IC50 for HeLa cells, proliferation by 14C-thymidine incorporation. In kind it is cell-based. As to conditions: Homo sapiens, total treatment 96 h. The method, then: Determination of IC50 for HeLa Cells (ATCC CCL-2)
This test is carried out using adherent tumour cell lines. Their proliferation is measured via the amount of ^14C-thymidine incorporated within the cells. These cells are placed in 96-well Cytostar plates with the culture medium and are incubated for 4 h at 37° C.-5% CO2. The products under test are then added and the plates are replaced in the incubator. ^14C-thymidine is added to the medium after 72 h of treatment and the cells are then incubated for 24 h. The incorporation of ^14C-thymidine is measured using a MicroBeta reader (Perkin Elmer) after these 24 h of “pulse”. The total time of treatment of the cells with the product under test is 96 h.
For each assay, the plates are prepared at the cell concentrations employed. The products are tested at 10 concentrations in duplicate. The first concentration is usually 10 μM, but it may vary, as may the degree of dilution, depending on the activity level of the products. The serial dilutions are made in pure DMSO and then each concentration is diluted in the culture medium. All of the products are tested in two independent assays.
• Dulbecco (Gibco 11960-044) • Inactivated foetal calf serum (FCS) (Gibco 10500-056) • Penicillin-Streptomycin-Glutamine (PSG) (Gibco 10378-016) • 96-well Cytostar plate (Amersham RPNQ0162) • DMSO (Sigma D2650) • ^14C-Thymidine (NEN NEC-568)
For `NC(=O)c1ccc2c(c1)c(-c1c(F)cccc1F)nc1c(NC3CCN(S(N)(=O)=O)CC3)[nH]nc12` [Example 22, 5-(2,6-difluorophenyl)-3-[(1-sulphamoylpiperidin-4-yl)amino]-2H-pyrazolo[4,3-c]isoquinoline-7-carboxamide], the IC50 stood at 411 nM. Still for that read-out and setting: to `CS(=O)(=O)N1CCC(Nc2n[nH]c3c2nc(-c2c(F)cccc2F)c2cc(-c4cn[nH]c4)ccc23)CC1` [Example 24, 5-(2,6-difluorophenyl)-N-[1-(methylsulphonyl)piperidin-4-yl]-7-(1H-pyrazol-4-yl)-1H-pyrazolo[4,3-c]isoquinolin-3-amine] belongs 2120 nM; to `CS(=O)(=O)N1CCC(Nc2n[nH]c3c2nc(-c2c(F)cccc2F)c2cc(C#N)ccc23)CC1` [Example 12, 5-(2,6-difluorophenyl)-3-{[1-(methylsulphonyl)piperidin-4-yl]amino}-1H-pyrazolo[4,3-c]isoquinoline-7-carbonitrile], 899 nM. Still for that read-out and setting: to `CS(=O)(=O)N1CCC(Nc2n[nH]c3c2nc(-c2c(F)cccc2F)c2cc(C=O)ccc23)CC1` [Example 15, 5-(2,6-difluorophenyl)-3-{[1-(methylsulphonyl)piperidin-4-yl]amino}-1H-pyrazolo[4,3-c]isoquinoline-7-carbaldehyde] belongs 488 nM. On the same count and under the same terms, for `NS(=O)(=O)N1CCC(Nc2n[nH]c3c2nc(-c2c(F)cccc2F)c2cc(CO)ccc23)CC1` [Example 27, 4-{[5-(2,6-difluorophenyl)-7-(hydroxymethyl)-1H-pyrazolo[4,3-c]isoquinolin-3-yl]amino}piperidine-1-sulphonamide] the value was 456 nM. `NS(=O)(=O)N1CCC(Nc2n[nH]c3c2nc(-c2c(F)cccc2F)c2cc(F)ccc23)CC1` [Example 28, 4-{[5-(2,6-difluorophenyl)-7-fluoro-1H-pyrazolo[4,3-c]isoquinolin-3-yl]amino}piperidine-1-sulphonamide] returned an IC50 of 230 nM.

`CS(=O)(=O)N1CCC(Nc2n[nH]c3c2nc(-c2c(F)cccc2F)c2cc(C(N)=O)ccc23)CC1` [Example 1, 5-(2,6-difluorophenyl)-3-{[1-(methylsulphonyl)piperidin-4-yl]amino}-1H-pyrazolo[4,3-c]isoquinoline-7-carboxamide] yielded a concentration for half-maximal inhibition (IC50) of 259 nM.

On to `CCS(=O)(=O)N1CCC(Nc2n[nH]c3c2nc(-c2c(F)cccc2F)c2cc(C#N)ccc23)CC1` [Example 13, 5-(2,6-difluorophenyl)-3-([1-(ethylsulphonyl)piperidin-4-yl]amino}-1H-pyrazolo[4,3-c]isoquinoline-7-carbonitrile], for which the IC50 was 954 nM. Still for that read-out and setting: for `CS(=O)(=O)N1CCC(Nc2n[nH]c3c2nc(-c2c(F)cccc2F)c2cc(-c4cn[nH]n4)ccc23)CC1` [Example 25, 5-(2,6-difluorophenyl)-N-[1-(methylsulphonyl)piperidin-4-yl]-7-(2H-1,2,3-triazol-4-yl)-1H-pyrazolo[4,3-c]isoquinolin-3-amine] the value was 2280 nM; for `CS(=O)(=O)N1CCC(Nc2n[nH]c3c2nc(-c2c(F)cccc2F)c2cc(C(N)=S)ccc23)CC1` [Example 9, 5-(2,6-difluorophenyl)-3-{[1-(methylsulphonyl)piperidin-4-yl]amino}-1H-pyrazolo[4,3-c]isoquinoline-7-carbothioamide], 597 nM. Same read-out and setting: for `CS(=O)(=O)N1CCC(Nc2n[nH]c3c2nc(-c2c(F)cccc2F)c2cc(C=NO)ccc23)CC1` [Example 2, 5-(2,6-difluorophenyl)-3-{[1-(methylsulphonyl)piperidin-4-yl]amino}-1H-pyrazolo[4,3-c]isoquinoline-7-carbaldehyde oxime] the value was 100 nM.

For the compound `N#Cc1ccc2c(c1)c(-c1c(F)cccc1F)nc1c(NC3CCN(S(N)(=O)=O)CC3)n[nH]c12` [Example 26, 4-{[7-cyano-5-(2,6-difluorophenyl)-1H-pyrazolo[4,3-c]isoquinolin-3-yl]amino}piperidine-1-sulphonamide], it took 1660 nM to reach half-maximal inhibition (IC50). On the same count and under the same terms, to `CS(=O)(=O)N1CCC(Nc2n[nH]c3c2nc(-c2c(F)cccc2F)c2cc(F)ccc23)CC1` [Example 6, 5-(2,6-difluorophenyl)-7-fluoro-3-{[1-(methylsulphonyl)piperidin-4-yl]amino}-1H-pyrazolo[4,3-c]isoquinoline] belongs 890 nM; to `NC(=O)c1ccc2c(c1)c(-c1c(F)cccc1F)nc1c(NC3CCN(S(=O)(=O)C4CC4)CC3)n[nH]c12` [Example 14, 5-(2,6-difluorophenyl)-3-{[1-(cyclopropylsulphonyl)piperidin-4-yl]amino}-1H-pyrazolo[4,3-c]isoquinoline-7-carboxamide], 413 nM; to `C=Cc1ccc2c(c1)c(-c1c(F)cccc1F)nc1c(NC3CCN(S(C)(=O)=O)CC3)n[nH]c12` [Example 5, 5-(2,6-difluorophenyl)-3-{[1-(methylsulphonyl)piperidin-4-yl]amino}-7-vinyl-1H-pyrazolo[4,3-c]isoquinoline], 2580 nM. On the same count and under the same terms, for `C#Cc1ccc2c(c1)c(-c1c(F)cccc1F)nc1c(NC3CCN(S(C)(=O)=O)CC3)n[nH]c12` [Example 7, 5-(2,6-difluorophenyl)-3-{[1-(methylsulphonyl)piperidin-4-yl]amino}-7-ethynyl-1H-pyrazolo[4,3-c]isoquinoline] the value was 1500 nM.

`COC(=O)c1ccc2c(c1)c(-c1c(F)cccc1F)nc1c(NC3CCN(S(C)(=O)=O)CC3)n[nH]c12` [Example 8, Methyl 5-(2,6-difluorophenyl)-3-{[1-(methylsulphonyl)piperidin-4-yl]amino}-1H-pyrazolo[4,3-c]isoquinoline-7-carboxylate] came in with an IC50 of 7280 nM. For `N#Cc1ccc2c(c1)c(-c1c(F)cccc1F)nc1c(NC3CCN(S(=O)(=O)C4CC4)CC3)n[nH]c12` [Example 11, 5-(2,6-difluorophenyl)-3-{[1-(cyclopropylsulphonyl)piperidin-4-yl]amino}-1H-pyrazolo[4,3-c]isoquinoline-7-carbonitrile], 909 nM corresponded to half-maximal inhibition (IC50).

Regarding `NC(=O)c1ccc2c(c1)c(-c1c(F)cccc1F)nc1c(NC3CCN(S(=O)(=O)C(F)(F)F)CC3)n[nH]c12` [Example 4, 5-(2,6-difluorophenyl)-3-{[1-(trifluoromethanesulphonyl)piperidin-4-yl]amino}-1H-pyrazolo[4,3-c]isoquinoline-7-carboxamide], the concentration for half-maximal inhibition (IC50) worked out at 789 nM. Compound `CCS(=O)(=O)N1CCC(Nc2n[nH]c3c2nc(-c2c(F)cccc2F)c2cc(C(N)=O)ccc23)CC1` [Example 18, 5-(2,6-difluorophenyl)-3-{[1-(ethylsulphonyl)piperidin-4-yl]amino}-1H-pyrazolo[4,3-c]isoquinolin-7-carboxamide] came in with an IC50 of 554 nM. On the same count and under the same terms, to `CCS(=O)(=O)N1CCC(Nc2n[nH]c3c2nc(-c2c(F)cccc2F)c2cc(C=O)ccc23)CC1` [Example 19, 5-(2,6-difluorophenyl)-3-{[1-(ethylsulphonyl)piperidin-4-yl]amino}-1H-pyrazolo[4,3-c]isoquinoline-7-carbaldehyde] belongs 451 nM; to `CCS(=O)(=O)N1CCC(Nc2n[nH]c3c2nc(-c2c(F)cccc2F)c2cc(C=NO)ccc23)CC1` [Example 20, 5-(2,6-difluorophenyl)-3-{[1-(ethylsulphonyl)piperidin-4-yl]amino}-1H-pyrazolo[4,3-c]isoquinoline-7-carbaldehyde oxime], 138 nM; to `CS(=O)(=O)N1CCC(Nc2n[nH]c3c2nc(-c2c(F)cccc2F)c2cc(C(=N)NO)ccc23)CC1` [Example 16, 5-(2,6-difluorophenyl)-N-hydroxy-3-{[1-(methylsulphonyl)piperidin-4-yl]amino}-1H-pyrazolo[4,3-c]isoquinoline-7-carboximidamide], 2350 nM.

The experiment is the same for the next values; noted with them: total treatment 96 h.
As for `CS(=O)(=O)N1CCC(Nc2n[nH]c3c2nc(-c2c(F)cccc2F)c2ccccc23)CC1` [Example 10], half-maximal inhibition (IC50) required 2040 nM.

`CCS(=O)(=O)N1CCC(Nc2n[nH]c3c2nc(-c2c(F)cccc2F)c2cc(CO)ccc23)CC1` [Example 21] came in with an IC50 of 338 nM. The same measure, in the same setting: to `NS(=O)(=O)N1CCC(Nc2n[nH]c3c2nc(-c2c(F)cccc2F)c2cc(C=NO)ccc23)CC1` (mixture of isomers) [Example 23, 4-({5-(2,6-difluorophenyl)-7-[(E/Z)-(hydroxyimino)methyl]-1H-pyrazolo[4,3-c]isoquinolin-3-yl}amino)piperidine-1-sulphonamide] belongs 126 nM; to `CS(=O)(=O)N1CCC(Nc2n[nH]c3c2nc(-c2c(F)cccc2F)c2cc(CF)ccc23)CC1` [Example 17], 263 nM. The same measure, in the same setting: for `CS(=O)(=O)N1CCC(Nc2n[nH]c3c2nc(-c2c(F)cccc2F)c2cc(CO)ccc23)CC1` [Example 3] the value was 248 nM.

These data come from patent US8461175B2, “1-pyrazolo[4,3-c]isoquinoline derivatives, preparation thereof and therapeutic use thereof” (Sanofi-Aventis, priority 2009, dated 2013).
